Columns and labels:
[1] = target: T1, enoyl-CoA hydratase short chain 1 (ECHS1) (Homo sapiens, UniProt P30084); assay: LC-MS/MS of lysine acetylation; type: binding; conditions: covalent (lysine acetylation at K282, K284, K204 near the CoA pocket)
T1 construct: recombinant, purified from E. coli, purchased from Novus Biologicals; homohexamer
T1 sequence (P30084 28-290): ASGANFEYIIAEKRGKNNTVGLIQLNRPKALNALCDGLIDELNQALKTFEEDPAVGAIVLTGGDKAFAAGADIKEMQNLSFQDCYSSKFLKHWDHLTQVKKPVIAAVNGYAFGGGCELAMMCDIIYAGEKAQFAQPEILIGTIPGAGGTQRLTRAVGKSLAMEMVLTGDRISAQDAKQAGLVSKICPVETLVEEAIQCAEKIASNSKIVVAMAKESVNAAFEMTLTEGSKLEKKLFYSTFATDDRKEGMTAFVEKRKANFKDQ

[2] = target: T1, enoyl-CoA hydratase short chain 1 (ECHS1); assay: LC-MS/MS (DIA) of site-specific lysine succinylation, dose-response; type: biochemical

SMILES | LC-MS/MS of lysine acetylation [1] | IC50 [2] [µM]
CC(=O)SCCNC(=O)CCNC(=O)[C@H](O)C(C)(C)COP(=O)(O)OP(=O)(O)OC[C@H]1O[C@@H](n2cnc3c(N)ncnc32)[C@H](O)[C@@H]1OP(=O)(O)O [acetyl-CoA] | in ECHS1 induced by acetyl-CoA incubation was inhibited by a 25-molar excess of CoA | –
CC(C)(COP(=O)(O)OP(=O)(O)OC[C@H]1O[C@@H](n2cnc3c(N)ncnc32)[C@H](O)[C@@H]1OP(=O)(O)O)[C@@H](O)C(=O)NCCC(=O)NCCS [CoA] | – | 331 to 1920
